Publication PMC9917099, “The Mycotoxin Patulin Inhibits the Mitochondrial Carnitine/Acylcarnitine Carrier (SLC25A20) by Interaction with Cys136 Implications for Human Health” (International Journal of Molecular Sciences, 2023)
Where a chain is given by its changes, count along the chain named.

Columns and labels:
[1] = target: T1, CAC in intact rat liver mitochondria (Rattus norvegicus, UniProt P97521); test: Treatment of intact rat liver mitochondria, then solubilization, reconstitution in proteoliposomes and carnitine antiport assay; assay type: biochemical
T1 construct: the native protein extracted from rat liver mitochondria; from tissue; host or cells: rat liver mitochondria (Triton X-100 extract)
T1 sequence (P97521 1-301): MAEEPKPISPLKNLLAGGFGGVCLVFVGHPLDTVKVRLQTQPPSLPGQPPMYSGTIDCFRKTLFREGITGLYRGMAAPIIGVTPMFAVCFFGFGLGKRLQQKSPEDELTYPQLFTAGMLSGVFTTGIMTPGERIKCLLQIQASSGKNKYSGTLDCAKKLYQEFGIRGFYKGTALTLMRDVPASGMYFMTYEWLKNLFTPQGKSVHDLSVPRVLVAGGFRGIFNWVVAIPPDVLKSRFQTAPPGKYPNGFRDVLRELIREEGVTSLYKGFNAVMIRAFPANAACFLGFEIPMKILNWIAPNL
Protocol: Figure 1 Effect of Patulin on the native carnitine/acylcarnitine carrier (CAC). (A) Dose-response analysis of proteoliposomes reconstituted with the CAC extracted from rat liver mitochondria (0.3 mg of total proteins) and incubated with PAT at the indicated concentrations for 30 min, before measuring the transport activity by adding 0.1 mM [^3H] carnitine for 10 min as described in Materials and Methods. The percentage of residual activity compared to control, without PAT treatment, is reported. The values are the means ± SD from three independent experiments. (B) Rat liver mitochondria (5 mg/100 μL) were incubated or not (control) for 60 min, with Patulin (60 μM) or GSH (5 mM) as indicated. Upon treatment, the unreacted drug was removed by washing the mitochondria in PBS 1X and then 0.3 mg mitochondria were solubilized by 3% TX-100, 10 mM PIPES pH 7.0 and reconstituted in proteoliposomes for transport assay as indicated in (A) and Materials and Methods. Black and white bars indicate without or with the addition of 5 mM dithioerythritol (DTE) 1 min before the transport assay to aliquots of each sample.
The effect of PAT on the CAC at 60 µM concentration was also detected in intact rat liver mitochondria. Upon treatment (60 min), the mitochondria were solubilized in Triton X-100 and 0.3 mg of mitochondrial extract were reconstituted in proteoliposomes for testing the transport activity of CAC (see above). […] Aliquots of intact mitochondria incubated with PAT were treated also with reduced GSH to verify whether this physiological SH-reducing agent was able to reverse the mycotoxin-protein interactions.
The recombinant CAC proteins were reconstituted in proteoliposomes as previously described. Rat liver mitochondria after purification, using the standard procedure of cell disruption and differential centrifugation were solubilized with 3% Triton X-100 in a PIPES buffer (10 mM) at pH 7.0. Herein, the mitochondrial extract (0.3 mg) were reconstituted in the liposomes as above described for the mitochondrial CAC recombinant protein, in the absence of reducing agents. The concentration of intraliposomal carnitine was 15 mM in all samples.
For the transport assay, 550 μL of proteoliposomes were passed through a Sephadex G-75 column in order to remove the external substrate. Six hundred μL of the turbid eluate were collected, divided into samples of 100 μL each, and used for transport measurement by the inhibitor-stop method. Transport was started as homoexchange by adding 0.1 mM [^3H]-carnitine to proteoliposomes containing 15 mM carnitine and, at the indicated time interval, stopped by 1.5 mM NEM (N-ethylmaleimide). The inhibitor was added together with the labelled substrate at time zero in the control samples. After finishing the transport reaction, the external radiolabel substrate was removed by gel filtration chromatography (Sephadex G-75), and the intraliposomal radioactivity was measured by liquid scintillation. Transport was measured at 25 °C. The experimental values were corrected by subtracting the controls. Transport rates were measured in 10 min, i.e., within the initial linear range of the time course.

[2] = target: T2, rat CAC mutant C23V/C58V/C89S/C136V/C283S (Rattus norvegicus, UniProt P97521, C136V/C23V/C283S/C58V/C89S); test: Carnitine antiport in proteoliposomes, CAC mutant containing only C155; assay type: biochemical
T2 construct: made in house; host or cells: E. coli C0214 (pMW7, inclusion bodies)
T2 sequence (P97521 1-301 C23V/C58V/C89S/C136V/C283S): T1 sequence (P97521 1-301) with C23V, C58V, C89S, C136V, C283S
Protocol: To shed light on the interaction between PAT and CAC and verify if specific Cys residues were involved, transport experiments on the recombinant rat and human WT CAC and CAC’s rat Cys mutants were performed. As in the case of the native protein, transport activities were measured as [^3H]-carnitine/carnitine antiport in proteoliposomes. […] The PAT inhibition of the WT recombinant protein was only slightly greater compared to the native protein, although compounds and other molecular systems that affect the mycotoxin binding to the native CAC were absent (see above). For identifying the residues involved in the PAT interaction, site-directed Cys mutants were tested for inhibition (Figure 2). […]
Figure 2 Dose-response analysis of the PAT inhibition of the CAC recombinant proteins. […] The data are expressed as a percentage of the controls (no PAT addition) and are means ± SD of three independent experiments. […]
For the transport assay, 550 μL of proteoliposomes were passed through a Sephadex G-75 column in order to remove the external substrate. […] After finishing the transport reaction, the external radiolabel substrate was removed by gel filtration chromatography (Sephadex G-75), and the intraliposomal radioactivity was measured by liquid scintillation. Transport was measured at 25 °C. […] Transport rates were measured in 10 min, i.e., within the initial linear range of the time course.

O=C1C=C2C(=CCOC2O)O1 (stereo not drawn) [PAT, 4-hydroxy-4H-furo [3,2c] pyran-2 [6H] -one]
inhibition at 60 µM ([1]; 60 µM PAT, 60 min, intact rat liver mitochondria, read-out: inhibition of CAC transport activity compared to control): ~50% | recovery of transport activity on addition of GSH after PAT treatment ([1]; 60 µM PAT, then 5 mM GSH): did not lead to a recovery | reversal of PAT binding by DTE ([1]; 5 mM DTE added 1 min before transport assay): No reverse binding | effect of GSH added to mitochondria before PAT incubation on PAT inhibition ([1]; 5 mM GSH before 60 µM PAT): prevented | IC50 ([1]; intact rat mitochondria): 60 µM | IC50 [2]: not possible to detect
